pIC50: −log10 of the molar value.
How the values were obtained:
[1] = molecular target: T1, HCMV polymerase (Human cytomegalovirus, UniProt P08546); experiment: HCMV polymerase assay (scintillation proximity assay, modified version); type: biochemical; settings: modified SPA assay; compounds diluted in 100% DMSO; 4.5 mM DTT
T1 construct: made in house; host or cells: recombinant baculovirus-infected SF-9 cells
Protocol: The HCMV polymerase assay is performed using a scintillation proximity assay (SPA) as described in several references, such as N. D. Cook, et al., Pharmaceutical Manufacturing International, pages 49-53 (1992); K. Takeuchi, Laboratory Practice, September issue (1992); U.S. Pat. No. 4,568,649 (1986); which are incorporated by reference herein. Reactions are performed in 96-well plates. The assay is conducted in 100 μl volume with 5.4 mM HEPES (pH 7.5), 11.7 mM KCl, 4.5 mM MgCl2, 0.36 mg/ml BSA, and 90 nM ^3H-dTTP. Assays are run with and without CHAPS, (3-[(3-cholamidopropyl)-dimethylammonio]-1-propane-sulfonate) at a final concentration of 2 mM. HCMV polymerase is diluted in enzyme dilution buffer containing 50% glycerol, 250 mM NaCl, 10 mM HEPES (pH 7.5), 100 μg/ml BSA, and 0.01% sodium azide. The HCMV polymerase, which is expressed in recombinant baculovirus-infected SF-9 cells and purified according to literature procedures, is added at 10% (or 10 μl) of the final reaction volume, i.e., 100 μl. Compounds are diluted in 50% DMSO and 10 μl are added to each well. Control wells contain an equivalent concentration of DMSO. Unless noted otherwise, reactions are initiated via the addition of 6 nM biotinylated poly(dA)-oligo(dT) template/primer to reaction mixtures containing the enzyme, substrate, and compounds of interest. Plates are incubated in a 25° C. or 37° C. H2O bath and terminated via the addition of 40 μl/reaction of 0.5 M EDTA (pH 8) per well. Reactions are terminated within the time-frame during which substrate incorporation is linear and varied depending upon the enzyme and conditions used, i.e., 30 min. for HCMV polymerase. Ten μl of streptavidin-SPA beads (20 mg/ml in PBS/10% glycerol) are added following termination of the reaction. Plates are incubated 10 min. at 37° C., then equilibrated to room temperature, and counted on a Packard Topcount. Linear regressions are performed and IC50's are calculated using computer software.
A modified version of the above HCMV polymerase assay is performed as described above, but with the following changes: Compounds are diluted in 100% DMSO until final dilution into assay buffer. In the previous assay, compounds are diluted in 50% DMSO. 4.5 mM dithiotherotol (DTT) is added to the polymerase buffer. […] All results are listed as Polymerase IC50 (μM) values. In Table 1, the term “nd” refers to activity data not determined.

[2] = molecular target: VZV polymerase (Varicella-zoster virus, UniProt P09252); experiment: VZV polymerase assay (Table 1); type: biochemical
VZV polymerase, sequence (P09252 whole entry): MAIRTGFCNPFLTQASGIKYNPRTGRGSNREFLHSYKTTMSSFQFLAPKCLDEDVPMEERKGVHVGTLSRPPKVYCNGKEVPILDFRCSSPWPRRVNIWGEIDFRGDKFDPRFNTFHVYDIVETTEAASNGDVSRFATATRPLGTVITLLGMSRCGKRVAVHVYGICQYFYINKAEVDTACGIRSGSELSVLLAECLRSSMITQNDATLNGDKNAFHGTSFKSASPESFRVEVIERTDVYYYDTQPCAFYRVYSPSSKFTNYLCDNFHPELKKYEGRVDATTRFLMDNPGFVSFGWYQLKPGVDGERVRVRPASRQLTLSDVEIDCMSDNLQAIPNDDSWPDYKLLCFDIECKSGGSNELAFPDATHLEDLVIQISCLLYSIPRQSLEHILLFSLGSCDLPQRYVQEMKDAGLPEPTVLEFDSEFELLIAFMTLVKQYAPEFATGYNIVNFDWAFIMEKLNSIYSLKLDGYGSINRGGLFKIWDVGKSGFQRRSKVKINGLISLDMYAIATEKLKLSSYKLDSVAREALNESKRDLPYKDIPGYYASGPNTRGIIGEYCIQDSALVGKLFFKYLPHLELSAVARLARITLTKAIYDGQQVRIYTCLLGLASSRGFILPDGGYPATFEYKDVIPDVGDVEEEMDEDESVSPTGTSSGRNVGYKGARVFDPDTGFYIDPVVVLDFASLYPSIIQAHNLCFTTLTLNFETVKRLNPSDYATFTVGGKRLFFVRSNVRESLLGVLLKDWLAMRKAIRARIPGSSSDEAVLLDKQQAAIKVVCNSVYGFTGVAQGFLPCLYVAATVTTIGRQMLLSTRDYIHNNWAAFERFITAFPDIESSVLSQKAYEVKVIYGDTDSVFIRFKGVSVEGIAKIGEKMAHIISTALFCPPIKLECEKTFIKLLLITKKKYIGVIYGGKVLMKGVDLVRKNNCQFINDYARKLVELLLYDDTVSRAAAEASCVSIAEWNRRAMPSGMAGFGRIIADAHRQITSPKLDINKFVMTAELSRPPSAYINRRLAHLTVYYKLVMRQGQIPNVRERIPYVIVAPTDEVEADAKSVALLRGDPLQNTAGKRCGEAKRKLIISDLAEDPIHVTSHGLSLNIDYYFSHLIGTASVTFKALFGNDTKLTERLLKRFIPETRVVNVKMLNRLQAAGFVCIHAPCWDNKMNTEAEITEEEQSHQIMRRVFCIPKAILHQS

[3] = molecular target: HSV polymerase (Human herpesvirus 1, UniProt P04293); experiment: HSV polymerase assay (Table 1); type: biochemical
HSV polymerase, sequence (P04293 whole entry): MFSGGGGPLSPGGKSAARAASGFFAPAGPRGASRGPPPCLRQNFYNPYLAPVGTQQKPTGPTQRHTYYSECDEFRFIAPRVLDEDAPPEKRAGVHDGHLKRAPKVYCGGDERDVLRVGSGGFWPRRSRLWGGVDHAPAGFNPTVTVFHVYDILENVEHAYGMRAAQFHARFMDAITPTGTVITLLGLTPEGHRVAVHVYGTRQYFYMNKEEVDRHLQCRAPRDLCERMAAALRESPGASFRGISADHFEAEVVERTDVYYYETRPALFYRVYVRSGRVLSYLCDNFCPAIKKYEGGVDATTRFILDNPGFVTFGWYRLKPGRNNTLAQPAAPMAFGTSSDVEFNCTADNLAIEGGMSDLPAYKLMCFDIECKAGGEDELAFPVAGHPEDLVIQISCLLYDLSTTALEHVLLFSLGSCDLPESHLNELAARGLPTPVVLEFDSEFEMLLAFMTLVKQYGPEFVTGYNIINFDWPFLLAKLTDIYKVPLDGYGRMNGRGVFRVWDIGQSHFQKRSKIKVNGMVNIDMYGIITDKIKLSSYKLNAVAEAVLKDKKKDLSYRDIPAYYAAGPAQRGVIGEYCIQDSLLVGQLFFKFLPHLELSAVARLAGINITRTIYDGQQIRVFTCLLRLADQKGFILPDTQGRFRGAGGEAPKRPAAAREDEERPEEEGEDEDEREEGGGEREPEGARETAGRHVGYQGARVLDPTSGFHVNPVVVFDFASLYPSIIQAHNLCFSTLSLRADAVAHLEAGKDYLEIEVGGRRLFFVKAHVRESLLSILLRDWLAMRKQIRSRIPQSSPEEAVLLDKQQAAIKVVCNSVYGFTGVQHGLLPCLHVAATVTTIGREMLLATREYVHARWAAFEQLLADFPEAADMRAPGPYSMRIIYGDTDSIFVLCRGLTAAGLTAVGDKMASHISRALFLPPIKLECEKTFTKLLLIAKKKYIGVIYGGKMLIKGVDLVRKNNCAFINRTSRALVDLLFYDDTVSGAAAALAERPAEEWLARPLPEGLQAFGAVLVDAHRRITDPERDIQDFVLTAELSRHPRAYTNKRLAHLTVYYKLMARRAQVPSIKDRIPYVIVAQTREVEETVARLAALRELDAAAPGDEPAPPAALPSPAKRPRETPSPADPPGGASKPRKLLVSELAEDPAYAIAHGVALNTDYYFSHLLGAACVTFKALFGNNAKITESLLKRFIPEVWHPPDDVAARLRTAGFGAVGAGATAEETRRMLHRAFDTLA

T1 sequence (P08546 whole entry): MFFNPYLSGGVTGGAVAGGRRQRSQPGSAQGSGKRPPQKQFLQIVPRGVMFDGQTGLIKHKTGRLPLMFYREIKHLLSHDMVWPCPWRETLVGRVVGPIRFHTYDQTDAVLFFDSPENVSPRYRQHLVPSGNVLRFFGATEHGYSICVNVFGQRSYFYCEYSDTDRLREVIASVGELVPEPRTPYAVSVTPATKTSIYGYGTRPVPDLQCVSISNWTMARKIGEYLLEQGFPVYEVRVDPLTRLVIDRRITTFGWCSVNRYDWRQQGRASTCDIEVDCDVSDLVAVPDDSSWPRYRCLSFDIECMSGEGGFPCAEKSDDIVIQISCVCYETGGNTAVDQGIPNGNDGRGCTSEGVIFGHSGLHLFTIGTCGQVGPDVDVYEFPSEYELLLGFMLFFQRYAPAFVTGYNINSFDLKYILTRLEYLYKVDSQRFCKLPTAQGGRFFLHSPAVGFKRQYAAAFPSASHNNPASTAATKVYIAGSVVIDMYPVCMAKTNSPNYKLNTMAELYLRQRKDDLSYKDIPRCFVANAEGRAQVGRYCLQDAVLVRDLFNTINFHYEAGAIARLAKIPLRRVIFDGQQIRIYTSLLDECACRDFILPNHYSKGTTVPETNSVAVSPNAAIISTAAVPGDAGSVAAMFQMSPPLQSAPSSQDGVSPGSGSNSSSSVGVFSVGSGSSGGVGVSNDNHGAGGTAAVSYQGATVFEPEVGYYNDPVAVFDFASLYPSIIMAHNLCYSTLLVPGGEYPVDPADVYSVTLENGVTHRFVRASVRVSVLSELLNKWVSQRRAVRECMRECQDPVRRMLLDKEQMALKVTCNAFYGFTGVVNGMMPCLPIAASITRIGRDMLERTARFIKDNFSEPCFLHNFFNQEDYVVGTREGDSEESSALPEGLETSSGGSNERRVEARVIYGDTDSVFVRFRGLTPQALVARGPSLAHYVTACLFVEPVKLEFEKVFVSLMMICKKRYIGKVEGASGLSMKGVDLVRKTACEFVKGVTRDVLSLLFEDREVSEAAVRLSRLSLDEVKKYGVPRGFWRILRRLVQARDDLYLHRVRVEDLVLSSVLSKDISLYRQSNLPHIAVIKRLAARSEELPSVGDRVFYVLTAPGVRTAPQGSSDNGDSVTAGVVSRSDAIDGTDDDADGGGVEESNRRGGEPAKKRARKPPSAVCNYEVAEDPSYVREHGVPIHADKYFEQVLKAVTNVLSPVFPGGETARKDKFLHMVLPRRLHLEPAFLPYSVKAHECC

| Compound | pIC50 [1] | melting point [°C] | pIC50 [2] | pIC50 [3] |
| --- | --- | --- | --- | --- |
| Cn1nc(C(=O)NCc2ccc(Cl)cc2)c(=O)c2cc(I)ccc21 [Example 1, N-(4-chlorobenzyl)-6-iodo-1-methyl-4-oxo-1,4-dihydro-3-cinnolinecarboxamide] | 5.26 | 194 to 195 |  |  |
| Cn1nc(C(=O)NCc2ccc(Cl)cc2)c(=O)c2cc(C#CCO)ccc21 [Example 2, N-(4-chlorobenzyl)-6-(3-hydroxy-1-propynyl)-1-methyl-4-oxo-1,4-dihydro-3-cinnolinecarboxamide] | 5.57 | 229 to 231 | 5.96 | 5.77 |
| Cn1nc(C(=O)NCc2ccc(Cl)cc2)c(=O)c2cc(C#CCCO)ccc21 [Example 3, N-(4-chlorobenzyl)-6-(4-hydroxy-1-butynyl)-1-methyl-4-oxo-1,4-dihydro-3-cinnolinecarboxamide] | 5.01 | 227 to 229 |  |  |
| Cn1nc(C(=O)NCc2ccc(Cl)cc2)c(=O)c2cc(CO)ccc21 [Example 4, N-(4-chlorobenzyl)-6-(hydroxymethyl)-1-methyl-4-oxo-1,4-dihydro-3-cinnolinecarboxamide] | 4.78 | 203 to 205 |  |  |
| Cn1nc(C(=O)NCc2ccc(Cl)cc2)c(=O)c2cc(CN3CCOCC3)ccc21 [Example 5, N-(4-chlorobenzyl)-1-methyl-6-(4-morpholinylmethyl)-4-oxo-1,4-dihydro-3-cinnolinecarboxamide] | 5.92 | 190 to 192 |  |  |

From patent US6624160B2, “4-oxo-1,4-dihydro-3-cinnolinecarboxamides as antiviral agents” (Pharmacia & Upjohn Co., priority 2000, dated 2003)
